Read-outs that look alike come from different tables or passages of the source. Peptide text beside a SMILES is read from it.
What was measured:
[1] = tested on: Escherichia coli K12 MG1655; format: cell-based
Method: (§1) To further validate the approach, a number of antimicrobial peptides identified during the in silico validation were synthesized. Their antimicrobial activity against Escherichia coli and Staphylococcus aureus were measured in a growth inhibitory assay. Details on the synthesis and assay are given in the supplementary material (see S1 Text). The peptides were obtained using h CAMP, the same predictor used during the previous validation. […]
(§2) Escherichia coli K12 MG1655 and Staphylococcus aureus 68 (HER1049) were obtained from the F´elix d’H´erelle Reference Center for Bacterial Viruses of Universit´e Laval (http://www.phage.ulaval.ca). Both strains were grown in Trypticase soy broth with agitation at 37◦C. The minimal inhibitory concentration assay was performed as described in [2] and broth microdilution protocol performed in 96-well plates.
(§3) The bacterial strains were grown overnight at 37◦C with aeration and diluted to a ﬁnal concentration of 5× 10^5 cfu/ml in the assay. The peptides were diluted in sterile water and were tested at the following concentrations: 0, 1, 2, 4, 8, 16 and 32µg/ml. The optical density (600nm) was followed every 30 minutes for 24 hours with a Synergy 2 plate reader (BioTek Instruments, Inc.). […]
(§4) 2.Wiegand I, Hilpert K, Hancock RE (2008) Agar and broth dilution methods to determine the minimal inhibitory concentration (mic) of antimicrobial substances. Nature protocols 3: 163–175.

[2] = tested on: Staphylococcus aureus 68 (HER1049); format: cell-based
Method: as §1, §2, §3, §4

[3] = tested on: bradykinin potentiation; settings: BPPs training set value; cited from earlier work
Description: On the BPPs dataset, the proposed approach predicted that the pentapeptide IEWAK should have an activity of 2.195, slightly less than the best peptide of the training set (VEWAK, 2.73, predicted as 2.192). However, the predicted activity of IEWAK is much better than the average peptide activity of the dataset, which is 0.71. One may ask why IEWAK has a lower predicted biological activity than VEWAK, which was part of the training data. It is common for machine learning algorithms to sacrifice accuracy on the training data to prevent overfitting. Despite this small discrepancy, the model is ver ...

[4] = tested on: 24 bacteria such as Escherichia coli, Bacteroïdes fragilis, and Staphylococcus aureus; settings: average potency over 24 bacteria; CAMPs training set value; cited from earlier work
Description: We observe a smooth power law with only a few peptides having outstanding biological activity, as expected.

[5] = stated in words as the cause of the weak activity
Description: We used the proposed approach with the predictor h CAMP to generate a list of K = 1,000 peptide candidates with the highest predicted activity. From this list, we greedily selected three peptides such that they all differed by at least 4 amino acids from each others. This was done to maximize the chemical diversity among them. We then tested these peptides (Peptides #2, #3, #4) in a growth inhibitory assay. […] In a second series, we ensured that a filter for water solubility was employed.

[6] = E. coli K12 MG1655, broth microdilution in 96-well plates, 5×10^5 cfu/ml, peptides in sterile water tested at 0, 1, 2, 4, 8, 16 and 32 µg/ml, OD 600 nm every 30 minutes for 24 hours, 37 °C
[7] = S. aureus 68 (HER1049), broth microdilution in 96-well plates, 5×10^5 cfu/ml, peptides in sterile water tested at 0, 1, 2, 4, 8, 16 and 32 µg/ml, OD 600 nm every 30 minutes for 24 hours, 37 °C

Compound	MIC (μg/ml) >E. coli ([1]; K12, 24 h) [µg/mL]	MIC (μg/ml) S. aureus ([2]; 68 (HER1049, 24 h)) [µg/mL]	MIC (μg/ml) >E. coli [1, 6] [µg/mL]	MIC (μg/ml) S. aureus [2, 7] [µg/mL]	other results
CC[C@H](C)[C@H](NC(=O)[C@H](CCCNC(=N)N)NC(=O)[C@H](CCCNC(=N)N)NC(=O)[C@H](CC(C)C)NC(=O)[C@H](CCCCN)NC(=O)[C@H](CCCCN)NC(=O)[C@H](Cc1c[nH]c2ccccc12)NC(=O)[C@H](CCCCN)NC(=O)[C@H](CCCCN)NC(=O)[C@H](Cc1c[nH]c2ccccc12)NC(=O)[C@@H](N)Cc1ccc(O)cc1)C(=O)N[C@@H](Cc1ccccc1)C(=O)N[C@@H](CCSC)C(=O)N[C@@H](CC(C)C)C(=O)N[C@H](C(N)=O)C(C)C [Peptide 1] (H-YWKKWKKLRRIFMLV-NH2; N-terminus assumed)	2	8	–	–	–
CC[C@H](C)[C@H](NC(=O)[C@H](CCCNC(=N)N)NC(=O)[C@H](CCCCN)NC(=O)[C@H](Cc1c[nH]c2ccccc12)NC(=O)[C@H](CCCNC(=N)N)NC(=O)[C@H](CCCCN)NC(=O)[C@H](Cc1c[nH]c2ccccc12)NC(=O)[C@@H](N)Cc1c[nH]c2ccccc12)C(=O)N[C@@H](CCCNC(=N)N)C(=O)N[C@@H](CCCNC(=N)N)C(=O)N[C@H](C(=O)N[C@@H](Cc1ccccc1)C(=O)N[C@@H](CCSC)C(=O)N[C@@H](CCSC)C(=O)N[C@H](C(N)=O)C(C)C)[C@@H](C)CC [Peptide 3] (H-WWKRWKRIRRIFMMV-NH2; N-terminus assumed)	4	8	–	–	–
CC[C@H](C)[C@H](NC(=O)CNC(=O)[C@H](CCCCN)NC(=O)[C@H](Cc1ccccc1)NC(=O)[C@H](CC(C)C)NC(=O)[C@H](CCCCN)NC(=O)[C@H](Cc1c[nH]c2ccccc12)NC(=O)[C@@H](N)CCCCN)C(=O)N[C@@H](CCCNC(=N)N)C(=O)N[C@@H](C)C(=O)N[C@H](C(=O)N[C@@H](CC(C)C)C(=O)N[C@@H](CCCCN)C(=O)N[C@H](C(=O)N[C@@H](CC(C)C)C(N)=O)C(C)C)C(C)C [Peptide 5, reference compound] (H-KWKLFKGIRAVLKVL-NH2; N-terminus assumed)	–	–	4	8	–
CC[C@H](C)[C@H](NC(=O)CNC(=O)[C@H](CC(C)C)NC(=O)[C@H](Cc1ccccc1)NC(=O)[C@H](CC(C)C)NC(=O)[C@H](CCCCN)NC(=O)[C@H](Cc1c[nH]c2ccccc12)NC(=O)[C@@H](N)CCCCN)C(=O)N[C@@H](CC(C)C)C(=O)N[C@@H](C)C(=O)N[C@H](C(=O)N[C@@H](CC(C)C)C(=O)N[C@@H](CCCCN)C(=O)N[C@H](C(=O)N[C@@H](CC(C)C)C(N)=O)C(C)C)C(C)C [Peptide 7, reference compound] (H-KWKLFLGILAVLKVL-NH2; N-terminus assumed)	–	–	> 32	> 32	–
VEWAK	–	–	–	–	bioactivity (logarithm of the relative activity index compared to the peptide VESSK) [3]: 2.73
CC[C@H](C)[C@H](NC(=O)[C@H](CC(C)C)NC(=O)[C@H](CCCNC(=N)N)NC(=O)[C@H](Cc1c[nH]c2ccccc12)NC(=O)CN)C(=O)N[C@@H](CCCCN)C(=O)N[C@@H](CCCCN)C(=O)N[C@H](C(=O)N[C@@H](CC(C)C)C(=O)N[C@@H](CCCNC(=N)N)C(=O)N[C@H](C(=O)N[C@@H](Cc1ccccc1)C(=O)N[C@@H](CCCCN)C(=O)NCC(=O)N[C@@H](CC(C)C)C(N)=O)C(C)C)[C@@H](C)CC [Peptide 6, reference compound] (H-GWRLIKKILRVFKGL-NH2; N-terminus assumed)	–	–	4	4	antibacterial activity (logarithm of bactericidal potency) [4]: 0.824
CC[C@H](C)[C@H](NC(=O)[C@H](CCCNC(=N)N)NC(=O)[C@H](CCCNC(=N)N)NC(=O)[C@H](CC(C)C)NC(=O)[C@H](CCCCN)NC(=O)[C@H](CCCCN)NC(=O)[C@H](Cc1c[nH]c2ccccc12)NC(=O)[C@H](CCCNC(=N)N)NC(=O)[C@H](CCCCN)NC(=O)[C@H](Cc1c[nH]c2ccccc12)NC(=O)[C@@H](N)Cc1c[nH]c2ccccc12)C(=O)N[C@@H](Cc1ccccc1)C(=O)N[C@@H](CC(C)C)C(=O)N[C@@H](CCSC)C(=O)N[C@@H](CC(C)C)C(N)=O [Peptide 2] (H-WWKRWKKLRRIFLML-NH2; N-terminus assumed)	4	4	–	–	–
CC(C)C[C@H](NC(=O)[C@H](CCCNC(=N)N)NC(=O)[C@H](CCCCN)NC(=O)[C@H](Cc1c[nH]c2ccccc12)NC(=O)[C@H](Cc1c[nH]c2ccccc12)NC(=O)[C@H](CCCCN)NC(=O)[C@H](Cc1c[nH]c2ccccc12)NC(=O)[C@@H](N)Cc1c[nH]c2ccccc12)C(=O)N[C@@H](CCCNC(=N)N)C(=O)N[C@@H](CCCNC(=N)N)C(=O)N[C@@H](CC(C)C)C(=O)N[C@@H](Cc1ccccc1)C(=O)N[C@@H](CC(C)C)C(=O)N[C@@H](CC(C)C)C(=O)N[C@H](C(N)=O)C(C)C [Peptide 4] (H-WWKWWKRLRRLFLLV-NH2; N-terminus assumed)	16	16	–	–	water solubility [5]: poor
